Patent publication EP1285919A1, “C10 Carbonate substituted taxanes as antitumor agents” (Florida State University Research Foundation, Inc., priority 2001, dated 2003)

Tests used:
[1] = tested on: A2780 Human Ovarian Carcinoma Xenografts; assay: In vivo evaluation against A2780 ovarian carcinoma xenografts; set-up: species or system NCr-nude mice; Mean Score: scale not given here; conditions: for MDS (n): 2.0 g endpoint
Method: In Vivo Evaluation of Antitumor Compounds Against A2780 Human Ovarian Carcinoma Xenografts
The A2780 group mean size range was 237-243 mg. Dosing was initiated on Day 1. […] Treatment groups are detailed in Table 5.

[2] = tested on: VM46 Human Colon Carcinoma; assay: In vivo evaluation against VM46 colon carcinoma xenografts; set-up: species or system NCr-nude mice; Mean Score: scale not given here
Method: In Vivo Evaluation of Antitumor Compounds Against VM46 Human Colon Carcinoma
The VM46 tumor group mean size range was 181-188 mg. Dosing was initiated on Day 1. […] Taxotere was given i.v. at a dose of 70 mg/kg on a qd x 1 schedule. […] The study was terminated on Day 64. Treatment groups are detailed in Table 11.

[3] = tested on: DU 145 Human Prostrate Carcinoma Xenografts; assay: In vivo evaluation against DU145 prostate carcinoma xenografts
Method: In Vivo Evaluation of Antitumor Compounds Against DU 145 Human Prostrate Carcinoma Xenografts
(§1) Antitumor compounds were prepared in a vehicle of 5% ethanol, 5% Cremophor and 90% isotonic saline in the manner as described for Solution 1 of Example 10. Taxol (paclitaxel; Bristol Meyers Squibb) was obtained as the marketed pharmaceutical drug. The dosing volume was 0.3 ml per 20 g mouse.
Male NCr-nude mice were implanted subcutaneously with 1 mm^3 DU145 prostate carcinoma fragments in the flank and sorted into treatment groups of five mice each. […] Dosing was initiated on Day 1. The antitumor compounds were given i.v. at an estimated maximum tolerated dose (MTD) appropriate for each agent on a qd x 1 schedule (single administration of compound). The i.v. Taxol was given on the qd x 1 schedule as two split doses (one hour between) of 12 mg/kg per split dose (total dose = 24 mg/kg). Taxol was also administered intraperitoneally (i.p.) on a qd x 5 schedule at a daily dose of 18 mg/kg. The vehicle was administered i.v. to control mice in Group 1 on the qd x 1 schedule. The study was terminated on Day 91. Treatment groups are detailed in Table 3.
(§2) The mean days of survival is the number of days after which a neoplasm reached a size of 1.5 g and the animal was euthanized. A complete response is obtained […]. […]

[4] = tested on: Panc-1 Human Pancreatic Carcinoma; assay: In vivo evaluation against Panc-1 pancreatic carcinoma xenografts; conditions: for MDS (n): 1.5 g endpoint
Method: In Vivo Evaluation of Antitumor Compounds Against Panc-1 Human Pancreatic Carcinoma
as §1
Female NCr-nude mice were implanted subcutaneously with 1 mm^3 Panc-1 pancreatic carcinoma fragments in the flank and sorted into treatment groups of six mice each. […] Dosing was initiated on Day 1. The antitumor compounds were given i.v. at an estimated maximum tolerated dose (MTD) appropriate for each agent on a qd x 1 schedule (single administration of compound). The i.v. taxol was given on the qd x 1 schedule as two split doses (one hour between) of 12 mg/kg per split dose (total dose = 24 mg/kg). Taxol was also administered at a dose of 15 mg/kg i.p. on a qd x 5 schedule. The vehicle was administered i.v. to control mice in Group 1 on the qd x 1 schedule. The study was terminated on Day 63. Treatment groups are detailed in Table 9.
as §2, with “The results are summarized in Table 10 and include mean days of survival (MDS), number of toxic deaths, number of survivors, number of complete or partial responses, and number with stable disease. The” for “The”

[5] = 1781 i.v. qd x 1 at estimated MTD
[6] = Group 4: 60.6 mg/kg i.v. qd x 1, 5 mice, study to Day 60
[7] = Group 4: 60 mg/kg i.v. qd x 1, 6 mice, study to Day 64
[8] = Group 4: i.v. qd x 1 at estimated MTD, 5 mice, study to Day 91
[9] = Group 4: 60 mg/kg i.v. qd x 1, 6 mice, study to Day 63
[10] = Group 2: 24 mg/kg i.v. qd x 1 (two split doses of 12 mg/kg), 5 mice, study to Day 60
[11] = Group 3: 15 mg/kg i.p. qd x 5, 5 mice, study to Day 60
[12] = Group 2: 24 mg/kg i.v. qd x 1 (two split doses of 12 mg/kg), 6 mice, study to Day 64
[13] = Group 3: 15 mg/kg i.p. qd x 5, 6 mice, study to Day 64
[14] = number of cases, Taxol 24 mg/kg i.v. qd x 1, six mice
[15] = Group 2: 24 mg/kg i.v. qd x 1 (two split doses of 12 mg/kg), 5 mice, study to Day 91
[16] = Group 3: 18 mg/kg i.p. qd x 5, 5 mice, study to Day 91
[17] = Group 2: 24 mg/kg i.v. qd x 1 (two split doses of 12 mg/kg), 6 mice, study to Day 63
[18] = Group 3: 15 mg/kg i.p. qd x 5, 6 mice, study to Day 63

With `CCOC(=O)O[C@H]1C(=O)[C@@]2(C)[C@H]([C@H](OC(=O)c3ccccc3)[C@]3(O)C[C@H](OC(=O)[C@H](O)[C@H](C=C(C)C)NC(=O)OC(C)(C)C)C(C)=C1C3(C)C)[C@]1(OC(C)=O)CO[C@@H]1C[C@@H]2O` [Compound 1781] the total response rate [1, 5] was “at least 20%”, the partial responses ([1]; 1781 i.v. qd x 1 at estimated MTD, five mice treated) was 2 and the “MDS (n)” value ([1]; Group 4: 60.6 mg/kg i.v. qd x 1, 5 mice, n=2, study to Day 60) was 38.5 ± 8.3 (2) days. For the same compound, the “Complete Response” value [1, 6] was 0, the “Mean Score” value [1, 6] was 6 ± 1.3 and the “Partial Response” value [1, 6] was 2. For the same compound, the “Stable Disease” value [1, 6] was 1, the Survivors [1, 6] was 3 and the “Toxic Deaths” value [1, 6] was 0. For the same compound, the Toxic Deaths ([2]; 1781 i.v. qd x 1, six mice) was “no toxic deaths”, the response rate [2, 5] was 16.7% and the “MDS (n)” value ([2]; Group 4: 60 mg/kg i.v. qd x 1, 6 mice, n=5, 1.5 g endpoint, study to Day 64) was 42.2 ± 7.1(5) days. The “Complete Response” value [2, 7] was 0, the “Mean Score” value [2, 7] was 3 ± 1.2 and the “Partial Response” value [2, 7] was 1. The “Stable Disease” value [2, 7] was 0, the “Toxic Deaths” value [2, 7] was 0 and the tolerability ([2]; mouse, in vivo, iv) was “well-tolerated”. The weight loss ([3]; 1781 72.6 mg/kg i.v. qd x 1, in a number of treated mice prior to death) was “over 20%”, the “Complete Response” value [3, 8] was 0 and the “Mean Score” value [3, 8] was 0 ± 0. For the same compound, the “Partial Response” value [3, 8] was 0, the “Stable Disease” value [3, 8] was 0 and the Survivors [3, 8] was 0. For the same compound, the “Toxic Deaths” value [3, 8] was 5, the overall response rate [4, 5] was 66.7% and the “MDS (n)” value ([4]; Group 4: 60 mg/kg i.v. qd x 1, 6 mice, n=2, study to Day 63) was 59.3 ± 2.9(2) days. The “Complete Response” value [4, 9] was 0, the “Mean Score” value [4, 9] was 6.7 ± 1.2 and the “Partial Response” value [4, 9] was 4. For the same compound, the “Stable Disease” value [4, 9] was 0, the Survivors [4, 9] was 4 and the “Toxic Deaths” value [4, 9] was 0. For the same compound, the Toxic Deaths ([4]; i.v. qd x 1, Taxol 24 mg/kg, 1781 at estimated MTD, six mice per group) was “no toxic deaths”, the “mean group weight loss” value ([4]; mouse, in vivo, iv) was “minimal” and the tolerability ([4]; mouse, in vivo, iv) was “well-tolerated”.

In the case of `CC(=O)O[C@H]1C(=O)[C@@]2(C)[C@H]([C@H](OC(=O)c3ccccc3)[C@]3(O)C[C@H](OC(=O)[C@H](O)[C@@H](NC(=O)c4ccccc4)c4ccccc4)C(C)=C1C3(C)C)[C@]1(OC(C)=O)CO[C@@H]1C[C@@H]2O` [Taxol], the “MDS (n)” value ([1]; Group 2: 24 mg/kg i.v. qd x 1 (two split doses of 12 mg/kg), 5 mice, n=5, study to Day 60) is reported as 21.9 ± 5.5 (5) days, the “Complete Response” value [1, 10] is reported as 0 and the “Mean Score” value [1, 10] is reported as 1.8 ± 0.4. For the same compound, the “Partial Response” value [1, 10] was 0, the “Stable Disease” value [1, 10] was 0 and the Survivors [1, 10] was 1. For the same compound, the “Toxic Deaths” value [1, 10] was 0, the “Complete Response” value [1, 11] was 0 and the “Mean Score” value [1, 11] was 0.6 ± 0.6. For the same compound, the “Partial Response” value [1, 11] was 0, the “Stable Disease” value [1, 11] was 0 and the Survivors [1, 11] was 0. For the same compound, the “Toxic Deaths” value [1, 11] was 4, the “mice succumbed to drug-related side effects” value ([1]; Taxol 15 mg/kg i.p. qd x 5, five mice) was “four” and the “increase in survival / survival extension compared to Group 1 controls” value ([1]; i.v. qd x 1, Taxol 24 mg/kg, Taxotere 70 mg/kg) was 87%. The MDS ([1]; i.v. qd x 1, Taxol 24 mg/kg, Taxotere 70 mg/kg, 2.0 g cut-off) was 21.9 days, the Stable Disease ([1]; number of animals, Taxol 24 mg/kg i.v. qd x 1, Day 61) was “One” and the “MDS (n)” value ([2]; Group 2: 24 mg/kg i.v. qd x 1 (two split doses of 12 mg/kg), 6 mice, n=4, 1.5 g endpoint, study to Day 64) was 43.3 ± 3.7 (4) days. For the same compound, the “Complete Response” value [2, 12] was 0, the “Mean Score” value [2, 12] was 3.8 ± 1.4 and the “Partial Response” value [2, 12] was 1. The “Stable Disease” value [2, 12] was 1, the “Toxic Deaths” value [2, 12] was 0 and the “MDS (n)” value ([2]; Group 3: 15 mg/kg i.p. qd x 5, 6 mice, n=2, 1.5 g endpoint, study to Day 64) was 36.1 ± 12.2(2) days. The “Complete Response” value [2, 13] was 0, the “Mean Score” value [2, 13] was 1.8 ± 1.3 and the “Partial Response” value [2, 13] was 1. For the same compound, the “Stable Disease” value [2, 13] was 0, the “Toxic Deaths” value [2, 13] was 3 and the mortalities ([2]; Taxol 15 mg/kg i.p. qd x 5, six treated animals) was “three”. The MDS ([2]; i.v. qd x 1, Taxol 24 mg/kg (four mice), Taxotere 70 mg/kg, 1.5 g endpoint) was 43.3 days, the Stable Disease [2, 14] was “one” and the Partial Response ([2]; number of mice, Taxol 24 mg/kg i.v. qd x 1, six mice) was “one”. The “MDS (n)” value ([3]; Group 2: 24 mg/kg i.v. qd x 1 (two split doses of 12 mg/kg), 5 mice, n=3, 1.5 g endpoint, study to Day 91) was 37.4 ± 8.9 (3) days, the “Complete Response” value [3, 15] was 0 and the “Mean Score” value [3, 15] was 2 ± 1. The “Partial Response” value [3, 15] was 0, the “Stable Disease” value [3, 15] was 1 and the Survivors [3, 15] was 1. The “Toxic Deaths” value [3, 15] was 1, the “Complete Response” value [3, 16] was 0 and the “Mean Score” value [3, 16] was 0 ± 0. The “Partial Response” value [3, 16] was 0, the “Stable Disease” value [3, 16] was 0 and the Survivors [3, 16] was 0. For the same compound, the “Toxic Deaths” value [3, 16] was 5, the weight loss ([3]; Taxol 18 mg/kg i.p. qd x 5) was “more than 20%” and the “mice died of drug-related side effects” value ([3]; Taxol 18 mg/kg i.p. qd x 5, five mice) was “five”. For the same compound, the “increase in survival compared to Group 1 controls” value ([3]; Taxol 24 mg/kg i.v. qd x 1) was 9%, the MDS ([3]; Taxol 24 mg/kg i.v. qd x 1, 1.5 g endpoint, three of five animals) was 37.4 days and the “MDS (n)” value ([4]; Group 2: 24 mg/kg i.v. qd x 1 (two split doses of 12 mg/kg), 6 mice, n=4, study to Day 63) was 34.7 ± 3.4(4) days. For the same compound, the “Complete Response” value [4, 17] was 0, the “Mean Score” value [4, 17] was 2.2 ± 0.8 and the “Partial Response” value [4, 17] was 0. The “Stable Disease” value [4, 17] was 1, the Survivors [4, 17] was 1 and the “Complete Response” value [4, 18] was 0. The “Mean Score” value [4, 18] was 1.2 ± 1.2, the “Partial Response” value [4, 18] was 1 and the “Stable Disease” value [4, 18] was 0. The Survivors [4, 18] was 1, the MDS ([4]; Taxol 24 mg/kg i.v. qd x 1, four mice, 1.5 g cut-off) was 34.7 days and the “Toxic Deaths” value ([4]; female, NCr-nude, mouse, in vivo) was 1. For the same compound, the “Toxic Deaths” value ([4]; female, NCr-nude, mouse, in vivo, ip, 15 mg/kg) was 4 and the Stable Disease [4, 14] was “one”.
